From ChEMBL document CHEMBL1129314, “Synthesis of novel Se-substituted selenocysteine derivatives as potential kidney selective prodrugs of biologically active selenol compounds: evaluation of kinetics of beta-elimination reactions in rat renal cytosol” (J Med Chem, 1996)

Legend:
[1] = target: Kynurenine--oxoglutarate transaminase 1 (Rattus norvegicus) (UniProt Q08415); experiment: Ratio of Vmax and Km for elimination of conjugates by rat renal cytosol
[2] = target: Kynurenine--oxoglutarate transaminase 1 (Rattus norvegicus) (UniProt Q08415); experiment: Specific activity against beta-elimination reaction by rat renal cytosolic beta-lyase after incubation with 0.2 mg of protein/mL for 10 min at 37 degree C using 1 mM substrate conc.

Kynurenine--oxoglutarate transaminase 1 (Rattus norvegicus), sequence (Q08415 whole entry, looked up): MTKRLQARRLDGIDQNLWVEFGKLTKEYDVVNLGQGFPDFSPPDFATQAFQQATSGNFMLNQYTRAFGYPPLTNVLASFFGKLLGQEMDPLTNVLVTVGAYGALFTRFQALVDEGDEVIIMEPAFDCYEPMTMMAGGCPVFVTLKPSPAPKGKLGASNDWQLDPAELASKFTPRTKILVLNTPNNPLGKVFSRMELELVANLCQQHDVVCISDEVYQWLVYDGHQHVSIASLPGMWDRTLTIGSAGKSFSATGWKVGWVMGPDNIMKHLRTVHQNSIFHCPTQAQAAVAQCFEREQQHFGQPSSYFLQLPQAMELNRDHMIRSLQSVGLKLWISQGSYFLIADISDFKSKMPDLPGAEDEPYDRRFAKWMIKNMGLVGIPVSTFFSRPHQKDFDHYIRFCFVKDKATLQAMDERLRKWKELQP

| SMILES | Vmax / Km (nM min-1 mg-1 mM-1) [1] | Specific activity (nM min-1 mg-1) [2] |
| --- | --- | --- |
| CCCC[Se]C[C@H](N)C(=O)O | 1.8 | 0.9 |
| CCC[Se]C[C@H](N)C(=O)O | – | 3.3 |
| CCSC[C@H](N)C(=O)O | – | 0.1 |
| N[C@@H](CSc1ccccc1)C(=O)O | – | 0.2 |
| Cc1ccc(CSC[C@H](N)C(=O)O)cc1 | – | 0.3 |
| COc1ccc(C[Se]C[C@H](N)C(=O)O)cc1 | 44.9 | 10.2 |
| CC[Se]C[C@H](N)C(=O)O | 21.8 | 11 |
| CC(C)[Se]C[C@H](N)C(=O)O | 66.9 | 14.9 |
| N[C@@H](C[Se]Cc1ccccc1)C(=O)O | 70 | 9.8 |
| Cc1ccc(C[Se]CC(N)C(=O)O)cc1 (single isomer, unassigned) | 70.2 | 13.1 |
| N[C@@H](CSCc1ccccc1)C(=O)O | – | 0.2 |
| N[C@@H](C[Se]Cc1ccc(Cl)c(Cl)c1)C(=O)O | 49 | 12.3 |
| COc1ccc(CSC[C@H](N)C(=O)O)cc1 | – | 0.1 |
| Cc1ccc([Se]C[C@H](N)C(=O)O)cc1 | – | 0.1 |
| COc1ccc([Se]C[C@H](N)C(=O)O)cc1 | 14 | 4.3 |
| CCC[Se]CC(N)C(=O)O (single isomer, unassigned) | 25.7 | 8 |
| C[Se]C[C@H](N)C(=O)O | – | 4 |
| Cc1ccc(C[Se]C[C@H](N)C(=O)O)cc1 | – | 4.9 |
| C[Se]CC(N)C(=O)O (single isomer, unassigned) | 13.2 | 7.1 |
| N[C@@H](C[Se]Cc1ccc(Cl)cc1)C(=O)O | 68.4 | 11.6 |
| N[C@@H](C[Se]c1ccc(Cl)cc1)C(=O)O | 16.7 | 5.2 |
| Cc1ccc([Se]CC(N)C(=O)O)cc1 (single isomer, unassigned) | 16.7 | 3.8 |
| N[C@@H](C[Se]c1ccccc1)C(=O)O | 44.2 | 13.8 |
